From patent US20240124456A1, “AZA-ERGOLINE DERIVATIVE AND PREPARATION METHOD THEREFOR AND APPLICATION THEREOF” (SHANGHAITECH UNIVERSITY, priority 2021, published 2024)
Where two headings read alike, the source gives them in different places.

Columns and labels:
Format in all cases: in vivo
[1] = Brain permeability in C57 male mice (plasma and brain tissue concentration); conditions: mouse; for Kp at 0.5 h / Kp at 2 h: brain/plasma; for Kp at 0.5 h: read-out: Brain/blood concentration ratio at 0.5 h; for Kp at 2 h: read-out: Brain/blood concentration ratio at 2.0 h
Procedure: • 2. Test of the brain permeability of compound (−)-I-10 administered to C57 male mice by single intragastric administration, intraperitoneal injection and intravenous injection
Using the same method as the pharmacokinetic experiment, 0.030 mL of blood was taken from each animal through the orbit at 0.5 and 2.0 hours, respectively, and anticoagulated with EDTA-K2. Blood samples were placed on ice after collection, and the plasma was separated by centrifugation within 30 minutes (centrifugation conditions: 5000 rpm, 10 minutes, 4° C.) and stored at −80° C. until analysis. After the animal was euthanized by bloodletting, the brain tissue samples were taken, homogenized with 50% methanol according to the body weight of 1:3 (m/v=1:3), and stored at −80° C. before homogenate analysis. The drug concentrations in plasma and brain tissue were analyzed by LC/MS/MS and compared.

C57B6 male mice [2] = assay: Morris water maze, MK801 recognition impairment model; conditions: for Platform exploration time / Times of crossing platform area: MK801 model; for Times of crossing platform area: probe trial
Procedure: The experimental animals were C57B6 male mice, n=8 in each group. Firstly, mice were intraperitoneally injected with 0.2 mg/kg of MK801 twice a day for ten consecutive days to establish a recognition impairment model, and control mice were intraperitoneally injected with normal saline containing the same amount of DMSO, and then the mice were subjected to the Morris water maze test.
Experimental setup: Experiments were conducted in a blue circular water reservoir with a diameter of 130 cm. The reservoir was filled with pure water about 30 cm deep. The reservoir was divided into 4 fan-shaped areas by a cross, and the escape platform (6 cm in diameter) was located in the center of one of the fan-shaped areas and was hidden 0.5 cm below the water surface. The position where the mice entered the water was fixed at the edges of the other three fan-shaped areas. The position where the mice entered the water was basically consistent with the straight-line distance of the platform.
Acquisition phase: 30 minutes before the start of the experiment, the mice were administered intraperitoneally. After the experiment started, the mouse was put into the water with its head facing the reservoir wall, and the placement position was randomly selected from one of the three starting positions in the east, west, and south, and the underwater hidden platform was located in the north quadrant. The time taken by the mouse to find the underwater platform was recorded. […] Then the above steps were repeated 2 times at another starting position. Each animal was trained three times a day for 5 consecutive days.
Probe trial: on the second day after the last acquisition phase, the platform was removed and a 60-second probe trial began. The animal was placed in the water from the opposite side of the original platform quadrant. The number of times the animal crossed the original platform location was recorded as a detection index of spatial memory. Data statistics were carried out using Student-t-test, p<0.05 was *, p<0.01 was **, p<0.001 was ***, p<0.0001 was ****.

C57B6 male mice [3] = assay: Forced swimming experiment after 5 h restraint (depression-like behavior); conditions: restraint for five hours
Procedure: The experimental animals were C57B6 male mice, n=8 in each group. Firstly, the C57B6 mice were induced to develop depression-related behavioral representations by restraining the mice for 5 hours, and then the effects of the compounds on their “depression-like” behaviors were determined by tail suspension and forced swimming experiments. The specific experimental procedure was as follows. First, the mice were restrained using a mouse fixator for tail vein injection. During the restraint process, all behavioral abilities of the mice were restricted under the condition of ensuring minimal pain to the mice. The mice were administered intraperitoneally once before and after restraint, respectively. After the restraint, the mice returned to the cage to recover for 30 minutes. After the 30 minutes, the mice in different groups were subjected to tail suspension or forced swimming to detect their “depression-like” behavior, respectively.
Forced swimming experiment: the mouse was placed in a 5 L glass beaker filled with water, the water surface height was 15 cm, and the mouse needed to swim continuously in the beaker for 6 minutes. The first two minutes was the adaptation period and no data collection was performed. The time of the intermittent immobility behavior of the mouse was recorded in the next four minutes, and the immobility behavior of the mouse was defined as: the mouse float passively on the surface of the water without movement, with only small local movements required to maintain afloat. The duration of this immobility state was used to measure the degree of behavioral despair in the mouse. Data statistics were carried out using Student-t-test, p<0.05 was *, p<0.01 was **, p<0.001 was ***, p<0.0001 was ****. The results of statistical data of restrained and unrestrained mouse tail suspension experiment and forced swimming experiment are shown in Table 8.

[4] = ip, intraperitoneal injection 1 mg/kg

## CN(C)C(=O)N[C@H]1CC[C@H](CCN2CCN3c4cccc5[nH]cc(c45)C[C@H]3C2)CC1 [(−)-I-10]
[1]; brain, intravenous injection 1 mg/kg, read-out: Drug concentration at 0.5 h in brain
  concentration at 0.5 h: 219 ± 21 ng/mL
[1]; brain, intravenous injection 1 mg/kg, read-out: Drug concentration at 2.0 h in brain
  concentration at 2 h: 77 ± 7 ng/mL
[1]; brain, ip, intraperitoneal injection 1 mg/kg, read-out: Drug concentration at 0.5 h in brain
  concentration at 0.5 h: 193 ± 13 ng/mL
[1]; brain, ip, intraperitoneal injection 1 mg/kg, read-out: Drug concentration at 2.0 h in brain
  concentration at 2 h: 42.7 ± 4 ng/mL
[1]; brain, oral administration 5 mg/kg, read-out: Drug concentration at 0.5 h in brain
  concentration at 0.5 h: 346 ± 217 ng/mL
[1]; brain, oral administration 5 mg/kg, read-out: Drug concentration at 2.0 h in brain
  concentration at 2 h: 169 ± 23 ng/mL
[1]; intravenous injection 1 mg/kg
  Kp at 0.5 h: 1.65
  Kp at 2 h: 3.09
[1]; [4]
  Kp at 0.5 h: 1.56
  Kp at 2 h: 3.1
[1]; oral administration 5 mg/kg
  Kp at 0.5 h: 1.5
  Kp at 2 h: 1.78
[1]; plasma, intravenous injection 1 mg/kg, read-out: Drug concentration at 0.5 h in plasma
  concentration at 0.5 h: 133 ± 19 ng/mL
[1]; plasma, intravenous injection 1 mg/kg, read-out: Drug concentration at 2.0 h in plasma
  concentration at 2 h: 24.9 ± 5 ng/mL
[1]; plasma, ip, intraperitoneal injection 1 mg/kg, read-out: Drug concentration at 0.5 h in plasma
  concentration at 0.5 h: 124 ± 15 ng/mL
[1]; plasma, ip, intraperitoneal injection 1 mg/kg, read-out: Drug concentration at 2.0 h in plasma
  concentration at 2 h: 13.8 ± 2.7 ng/mL
[1]; plasma, oral administration 5 mg/kg, read-out: Drug concentration at 0.5 h in plasma
  concentration at 0.5 h: 231 ± 153 ng/mL
[1]; plasma, oral administration 5 mg/kg, read-out: Drug concentration at 2.0 h in plasma
  concentration at 2 h: 95 ± 16 ng/mL
C57B6 male mice [2]; 0.1 mg/kg
  improvement of MK801-induced spatial recognition impairment (in words): significantly improve
  Times of crossing platform area: 5.800
C57B6 male mice [2]; 0.1 mg/kg and 0.025 mg/kg
  improvement of MK801-induced memory impairment (in words): significantly improve
C57B6 male mice [2]; fifth day, 0.00625 mg/kg
  Platform exploration time: 97.94 s
C57B6 male mice [2]; fifth day, 0.025 mg/kg
  Platform exploration time: 92.23 s
C57B6 male mice [2]; fifth day, 0.1 mg/kg
  Platform exploration time: 62.86 s
C57B6 male mice [2]; first day, 0.00625 mg/kg
  Platform exploration time: 173.0 s
C57B6 male mice [2]; first day, 0.025 mg/kg
  Platform exploration time: 161.2 s
C57B6 male mice [2]; first day, 0.1 mg/kg
  Platform exploration time: 146.2 s
C57B6 male mice [2]; fourth day, 0.00625 mg/kg
  Platform exploration time: 87.77 s
C57B6 male mice [2]; fourth day, 0.025 mg/kg
  Platform exploration time: 96.66 s
C57B6 male mice [2]; fourth day, 0.1 mg/kg
  Platform exploration time: 68.62 s
C57B6 male mice [2]; 0.00625 mg/kg
  Times of crossing platform area: 2.600
C57B6 male mice [2]; 0.025 mg/kg
  Times of crossing platform area: 4.500
C57B6 male mice [2]; second day, 0.00625 mg/kg
  Platform exploration time: 145.3 s
C57B6 male mice [2]; second day, 0.025 mg/kg
  Platform exploration time: 154.0 s
C57B6 male mice [2]; second day, 0.1 mg/kg
  Platform exploration time: 128.5 s
C57B6 male mice [2]; third day, 0.00625 mg/kg
  Platform exploration time: 108.1 s
C57B6 male mice [2]; third day, 0.025 mg/kg
  Platform exploration time: 96.66 s
C57B6 male mice [2]; third day, 0.1 mg/kg
  Platform exploration time: 88.38 s
C57B6 male mice [3]; 0.00625 mg/kg intraperitoneal
  Immobility time, forced swimming experiment: 76.09 s
C57B6 male mice [3]; 0.025 mg/kg intraperitoneal
  Immobility time, forced swimming experiment: 56.59 s
C57B6 male mice [3]; 0.1 mg/kg intraperitoneal
  Immobility time, forced swimming experiment: 42.76 s
C57B6 male mice [3]; 0.4 mg/kg intraperitoneal
  Immobility time, forced swimming experiment: 22.40 s
